Measurements reported in patent US20240159750A1, “METHODS FOR DIAGNOSIS AND TREATMENT OF COVID-19” (priority 2021, published 2024).

Legend:
[1] = tested on: C2 and PC cells; assay type: cell-based, rat; conditions: serum-starved C2 cells (TYMP-overexpressing VSMC)
[2] = tested on: hospitalized COVID-19 patients; conditions: interim report, WHO solidarity trial; cited from earlier work

With Pam3CSK4 the “NF-κB activation (p65 phosphorylation at T254)” value [1] was “dramatically increased”.
For `Cc1cccc(C)c1OCC(=O)N[C@@H](Cc1ccccc1)[C@@H](O)C[C@H](Cc1ccccc1)NC(=O)[C@H](C(C)C)N1CCCNC1=O` [lopinavir], the “effect on hospitalized COVID-19 patients” value [2] is listed as “little or no effect”.
In the case of `CCN(CCO)CCCC(C)Nc1ccnc2cc(Cl)ccc12` (stereo not drawn) [hydroxychloroquine], the “effect on hospitalized COVID-19 patients” value [2] is listed as “little or no effect”.
